According to ChEMBL document CHEMBL1201862, “PubChem BioAssay data set” (2004):
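Five concentrations, 48 hours, 96-well plates. At the GI50, growth is halved.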 The source made the active and inactive calls. Cut-off read from the data, not from the text of the source: active = GI50 up to about 1.1 µM and inactive = higher.

Key:
Test in all cases: inhibition of tumour cell growth, NCI panel, 48 h
LOX IMVI = tested on: LOX IMVI
KM12 = tested on: KM12
A549 = tested on: A549
UACC-62 = tested on: UACC-62
UO-31 = tested on: UO-31
Hs-578T = tested on: Hs-578T
RPMI-8226 = tested on: RPMI-8226
RXF 393 = tested on: RXF 393
HT-29 = tested on: HT-29
TK-10 = tested on: TK-10
COLO 205 = tested on: COLO 205
PC-3 = tested on: PC-3
SK-OV-3 = tested on: SK-OV-3
MDA-N = tested on: MDA-N
HCC 2998 = tested on: HCC 2998
DU-145 = tested on: DU-145
EKVX = tested on: EKVX
HL-60 = tested on: HL-60
OVCAR-3 = tested on: OVCAR-3
SNB-19 = tested on: SNB-19
NCI/ADR-RES = tested on: NCI/ADR-RES
OVCAR-4 = tested on: OVCAR-4
HCT-116 = tested on: HCT-116
MOLT-4 = tested on: MOLT-4
SN12C = tested on: SN12C
NCI-H23 = tested on: NCI-H23
786-0 = tested on: 786-0
K562 = tested on: K562
CCRF-CEM = tested on: CCRF-CEM
NCI-H226 = tested on: NCI-H226
SR = tested on: SR
A498 = tested on: A498
HCT-15 = tested on: HCT-15
SK-MEL-28 = tested on: SK-MEL-28
SK-MEL-5 = tested on: SK-MEL-5
MCF7 = tested on: MCF7
SF-295 = tested on: SF-295
U-251 = tested on: U-251
IGROV-1 = tested on: IGROV-1
CAKI-1 = tested on: CAKI-1
MDA-MB-435 = tested on: MDA-MB-435
NCI-H460 = tested on: NCI-H460
BT-549 = tested on: BT-549
M14 = tested on: M14
NCI-H522 = tested on: NCI-H522
SW-620 = tested on: SW-620
OVCAR-8 = tested on: OVCAR-8
UACC-257 = tested on: UACC-257
ACHN = tested on: ACHN
OVCAR-5 = tested on: OVCAR-5
Malme-3M = tested on: Malme-3M
HOP-92 = tested on: HOP-92

Measured: GI50

C=CCN1C(=O)CC1N(CC=C)S(=O)(=O)c1ccc(C)cc1 (configuration not stated)
inactive: LOX IMVI > 100 µM | KM12 > 100 µM | A549 > 100 µM | UACC-62 > 100 µM | UO-31 > 100 µM | Hs-578T > 100 µM | RPMI-8226 > 100 µM | RXF 393 > 100 µM | HT-29 > 100 µM | TK-10 > 100 µM | COLO 205 > 100 µM | PC-3 > 100 µM | SK-OV-3 > 100 µM | MDA-N > 100 µM | HCC 2998 > 100 µM | DU-145 > 100 µM | EKVX > 100 µM | HL-60 > 100 µM | OVCAR-3 > 100 µM | SNB-19 > 100 µM | NCI/ADR-RES > 100 µM | OVCAR-4 > 100 µM | HCT-116 > 100 µM | MOLT-4 > 100 µM | SN12C 61.7 µM | NCI-H23 > 100 µM | 786-0 > 100 µM | K562 98.4 µM | CCRF-CEM > 100 µM | NCI-H226 > 100 µM | SR 82.8 µM | A498 > 100 µM | SK-MEL-28 > 100 µM | SK-MEL-5 > 100 µM | MCF7 > 100 µM | SF-295 > 100 µM | U-251 > 100 µM | IGROV-1 > 100 µM | CAKI-1 > 100 µM | MDA-MB-435 > 100 µM | NCI-H460 > 100 µM | BT-549 > 100 µM | M14 > 100 µM | NCI-H522 > 100 µM | SW-620 > 100 µM | OVCAR-8 > 100 µM | UACC-257 > 100 µM | ACHN > 100 µM | OVCAR-5 > 100 µM | Malme-3M > 100 µM | HOP-92 > 100 µM
> 100 µM: HCT-15
